Measurements from US20260034218A1, “ALLEVIATING GRAFT VERSUS HOST DISEASE USING ENGINEERED INKT CELLS” (The Regents of the University of California, priority 2022, published 2026).

Key:
HSC-iNKT cells [1] = experiment: GCV in vivo killing assay, NSG xenograft mouse model; parameters: species or system human cells in NSG mice; details: GCV i.p. 50 mg/kg per day, 5 days
Description: (§1) To increase the safety profile of HSC-iNKT cell product, we included an sr39TK PET imaging/suicide gene in the lentiviral vector, which allows for the in vivo monitoring of these cells using PET imaging and the elimination of these cells through ganciclovir (GCV)-induced depletion in case of an adverse event (FIGS S1A and 1B in Li et al.).
GCV in vivo killing assay was performed using an NSG xenograft mouse model. NSG mice received i.v. injection of 1×10^7 HSC-iNKT cells on day 0, followed by i.p. injection of GCV for 5 consecutive days (50 mg/kg per injection per day). On day 5, mice were terminated. Multiple tissues (i.e., blood, spleen, liver, and lung) were collected and processed for flow cytometry analysis to detect tissue-infiltrating HSC-iNKT cells (identified as iNKT TCR^+CD45^+), following established protocols (Li et al., 2021b; Y. R. Li et al., 2022; Zhu et al., 2019).

HSC-iNKT cells [2] = experiment: GCV in vitro killing assay; assay type: cell-based, human; details: GCV 0-50 μM, 4 days
Description: as §1
For GCV in vitro killing assays, HSC-iNKT cells were cultured in C10 medium in the presence of titrated amount of GCV (0-50 μM) for 4 days; live HSC-iNKT cells were then counted using a hematocytometer (VWR) via Trypan Blue staining (Fisher Scientific).

Nc1nc(O)c2ncn(COC(CO)CO)c2n1 [GCV, Ganciclovir]
depletion of HSC-iNKT cells from blood, liver, spleen and lung (HSC-iNKT cells [1]): efficient depletion | killing of HSC-iNKT cells in cell culture (HSC-iNKT cells [2]): effective killing
